Measurements: patent US20250346597A1, “CONDENSED HETEROCYCLIC COMPOUNDS AS INHIBITOR OF DIACYLGLYCEROL KINASES” (BEONE MEDICINES I GMBH, priority 2023, published 2025)

Experiments:
DGKζ = DGKζ (Homo sapiens (Human), UniProt Q13574); experiment: Biochemical DGK IC50 assay (ADP-Glo, lipid micelle substrate), DGKζ; details: full length DGKζ 0.5 nM, ATP 140 μM, DAG 80 μM
Procedure, shortened: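 Full-length human His-TEV-tagged DGKζ, expressed in Sf9 cells and purified, was run at room temperature on DAG/PS lipid micelles in 50 mM HEPES, 10 mM MgCl2, 0.01 mM CaCl2 buffer. After 1 h reaction, ADP formed was detected by ADP-Glo luminescence. IC50s came from inhibition across increasing compound concentrations.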

DGKα = DGKα (Homo sapiens (Human), UniProt P23743); experiment: Biochemical DGK IC50 assay (ADP-Glo, lipid micelle substrate), DGKα; details: full length DGKα […], ATP 140 μM, DAG 80 μM; note: full length DGKα 7.5 nM
Procedure, shortened: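 Full-length human DGKα assayed by ADP-Glo with DAG/PS lipid micelle substrate at room temperature in 50 mM HEPES, 10 mM MgCl2, 0.01% BSA, 0.1 mM Na3VO4, 0.005% Tween-20, 0.01 mM CaCl2.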

DGKζ, sequence (Q13574 other isoform, or with tags, fused parts or gaps): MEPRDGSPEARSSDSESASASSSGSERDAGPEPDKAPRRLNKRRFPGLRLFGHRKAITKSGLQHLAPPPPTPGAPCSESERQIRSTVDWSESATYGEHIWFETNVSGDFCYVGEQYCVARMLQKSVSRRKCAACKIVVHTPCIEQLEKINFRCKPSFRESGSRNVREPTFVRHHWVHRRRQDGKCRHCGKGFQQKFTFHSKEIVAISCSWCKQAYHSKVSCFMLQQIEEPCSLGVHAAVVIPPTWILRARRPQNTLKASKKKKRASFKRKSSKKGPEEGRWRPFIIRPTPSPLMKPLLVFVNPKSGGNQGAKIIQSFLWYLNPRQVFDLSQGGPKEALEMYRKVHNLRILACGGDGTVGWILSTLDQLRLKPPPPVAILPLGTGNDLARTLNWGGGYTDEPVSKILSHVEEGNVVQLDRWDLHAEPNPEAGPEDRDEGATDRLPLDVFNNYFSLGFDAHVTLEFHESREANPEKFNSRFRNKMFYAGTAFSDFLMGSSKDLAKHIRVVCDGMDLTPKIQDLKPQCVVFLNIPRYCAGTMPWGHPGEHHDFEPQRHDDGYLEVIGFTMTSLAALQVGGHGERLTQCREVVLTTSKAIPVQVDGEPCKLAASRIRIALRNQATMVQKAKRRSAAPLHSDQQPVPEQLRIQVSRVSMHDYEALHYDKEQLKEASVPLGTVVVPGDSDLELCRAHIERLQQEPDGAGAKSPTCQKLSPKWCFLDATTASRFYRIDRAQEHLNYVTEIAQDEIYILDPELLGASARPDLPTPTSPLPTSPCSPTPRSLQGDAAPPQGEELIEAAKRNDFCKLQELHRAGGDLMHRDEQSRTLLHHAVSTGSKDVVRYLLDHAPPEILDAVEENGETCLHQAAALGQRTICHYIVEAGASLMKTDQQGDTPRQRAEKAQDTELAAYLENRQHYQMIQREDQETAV
DGKα, sequence (P23743 whole entry): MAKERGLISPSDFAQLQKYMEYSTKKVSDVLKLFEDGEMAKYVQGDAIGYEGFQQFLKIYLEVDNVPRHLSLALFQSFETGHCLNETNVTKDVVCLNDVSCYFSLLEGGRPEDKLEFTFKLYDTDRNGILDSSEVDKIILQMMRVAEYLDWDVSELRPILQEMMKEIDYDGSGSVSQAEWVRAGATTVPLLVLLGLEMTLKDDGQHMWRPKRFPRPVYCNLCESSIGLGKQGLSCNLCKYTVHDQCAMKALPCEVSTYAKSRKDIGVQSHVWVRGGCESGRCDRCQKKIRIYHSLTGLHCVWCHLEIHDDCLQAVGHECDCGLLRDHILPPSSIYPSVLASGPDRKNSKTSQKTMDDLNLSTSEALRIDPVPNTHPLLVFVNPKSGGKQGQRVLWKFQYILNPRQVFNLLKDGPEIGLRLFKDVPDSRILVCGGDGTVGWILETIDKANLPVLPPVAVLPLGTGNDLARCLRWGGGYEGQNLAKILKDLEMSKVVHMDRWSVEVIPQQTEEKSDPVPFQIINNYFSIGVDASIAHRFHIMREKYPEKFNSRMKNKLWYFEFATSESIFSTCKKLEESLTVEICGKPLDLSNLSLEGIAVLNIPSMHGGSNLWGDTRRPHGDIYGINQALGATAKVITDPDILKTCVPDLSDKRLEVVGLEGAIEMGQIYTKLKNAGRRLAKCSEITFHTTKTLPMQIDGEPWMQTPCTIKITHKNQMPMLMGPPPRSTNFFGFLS

Structure (SMILES) | IC50 (DGKζ) [nM] | IC50 (DGKα) [nM]
CC[C@H]1CN(C(C)c2cc(F)c(CN3CCS(=O)(=O)CC3)c(F)c2)[C@H](CC)CN1c1cc(=O)n(C)c2cn(CC#N)nc12 (stereo partly drawn) [Compound A5, 2-(7-((2S,5R)-4-(1-(4-((1,1-dioxidothiomorpholino)methyl)-3,5-difluorophenyl)ethyl)-2,5-diethylpiperazin-1-yl)-4-methyl-5-oxo-4,5-dihydro-2H-pyrazolo[4,3-b]pyridin-2-yl)acetonitrile] | 73 | 497
CC[C@H]1CN(C(C)c2ccc(C)cc2C)[C@H](CC)CN1c1cc(=O)n(C)c2cn(CC#N)nc12 (stereo partly drawn) [Compound A6, 2-(7-((2S,5R)-4-(1-(2,4-dimethylphenyl)ethyl)-2,5-diethylpiperazin-1-yl)-4-methyl-5-oxo-4,5-dihydro-2H-pyrazolo[4,3-b]pyridin-2-yl)acetonitrile] | 219 | 8530
CCc1ccc(C(C)N2C[C@H](CC)N(c3cc(=O)n(C)c4cn(CC#N)nc34)C[C@H]2CC)cc1 (stereo partly drawn) [Compound A7, 2-(7-((2S,5R)-2,5-diethyl-4-(1-(4-ethylphenyl)ethyl)piperazin-1-yl)-4-methyl-5-oxo-4,5-dihydro-2H-pyrazolo[4,3-b]pyridin-2-yl)acetonitrile] | 152 | 129
CC[C@H]1CN(C(C)c2ccc(C(F)(F)F)c(C)c2)[C@H](CC)CN1c1cc(=O)n(C)c2cn(CC#N)nc12 (stereo partly drawn) [Compound A8, 2-(7-((2S,5R)-2,5-diethyl-4-(1-(3-methyl-4-(trifluoromethyl)phenyl)ethyl)piperazin-1-yl)-4-methyl-5-oxo-4,5-dihydro-2H-pyrazolo[4,3-b]pyridin-2-yl)acetonitrile] | 229 | 1000
CC[C@H]1CN(C(C)c2ccc(OC)c(C)c2)[C@H](CC)CN1c1cc(=O)n(C)c2cn(CC#N)nc12 (stereo partly drawn) [Compound A9, 2-(7-((2S,5R)-2,5-diethyl-4-(1-(4-methoxy-3-methylphenyl)ethyl)piperazin-1-yl)-4-methyl-5-oxo-4,5-dihydro-2H-pyrazolo[4,3-b]pyridin-2-yl)acetonitrile] | 339 | 2110
CC[C@H]1CN(C(C)c2ccc(C(C)(F)F)cc2)[C@H](CC)CN1c1cc(=O)n(C)c2cn(CC#N)nc12 (stereo partly drawn) [Compound A10, 2-(7-((2S,5R)-4-(1-(4-(1,1-difluoroethyl)phenyl)ethyl)-2,5-diethylpiperazin-1-yl)-4-methyl-5-oxo-4,5-dihydro-2H-pyrazolo[4,3-b]pyridin-2-yl)acetonitrile] | 104 | 162
CC[C@H]1CN(C(C)c2ccc(OCCOC)cc2)[C@H](CC)CN1c1cc(=O)n(C)c2cn(CC#N)nc12 (stereo partly drawn) [Compound A11, 2-(7-((2S,5R)-2,5-diethyl-4-(1-(4-(2-methoxyethoxy)phenyl)ethyl)piperazin-1-yl)-4-methyl-5-obo-4,5-dihydro-2H-pyrazolo[4,3-b]pyridin-2-yl)acetonitrile] | 500 | 79
CC[C@H]1CN(C(C)c2ccc(OC)cc2F)[C@H](CC)CN1c1cc(=O)n(C)c2cn(CC#N)nc12 (stereo partly drawn) [Compound A12, 2-(7-((2S,5R)-2,5-diethyl-4-(1-(2-fluoro-4-methoxyphenyl)ethyl)piperazin-1-yl)-4-methyl-5-oxo-4,5-dihydro-2H-pyrazolo[4,3-b]pyridin-2-yl)acetonitrile] | 92 | 440
CC[C@H]1CN(C(C)c2ccc(OC3CCOC3)cc2F)[C@H](CC)CN1c1cc(=O)n(C)c2cn(CC#N)nc12 (stereo partly drawn) [Compound A13, 2-(7-((2S,5R)-2,5-diethyl-4-(1-(2-fluoro-4-((tetrahydrofuran-3-yl)oxy)phenyl)ethyl)piperazin-1-yl)-4-methyl-5-oxo-4,5-dihydro-2H-pyrazolo[4,3-b]pyridin-2-yl)acetonitrile] | 323 | 838
CC[C@H]1CN(C(C)c2ccc(OC)cc2C)[C@H](CC)CN1c1cc(=O)n(C)c2cn(CC#N)nc12 (stereo partly drawn) [Compound A14, 2-(7-((2S,5R)-2,5-diethyl-4-(1-(4-methoxy-2-methylphenyl)ethyl)piperazin-1-yl)-4-methyl-5-oxo-4,5-dihydro-2H-pyrazolo[4,3-b]pyridin-2-yl)acetonitrile] | 63 | 8410
CC[C@H]1CN(C(C)c2ccc(COC3CCOCC3)cc2)[C@H](CC)CN1c1cc(=O)n(C)c2cn(CC#N)nc12 (stereo partly drawn) [Compound A15, 2-(7-((2S,5R)-2,5-diethyl-4-(1-(4-(((tetrahydro-2H-pyran-4-yl)oxy)methyl)phenyl)ethyl)piperazin-1-yl)-4-methyl-5-oxo-4,5-dihydro-2H-pyrazolo[4,3-b]pyridin-2-yl)acetonitrile] | 219 | 193
CC[C@H]1CN(C(C)c2ccc(COC3COC3)cc2)[C@H](CC)CN1c1cc(=O)n(C)c2cn(CC#N)nc12 (stereo partly drawn) [Compound A16, 2-(7-((2S,5R)-2,5-diethyl-4-(1-(4-((oxetan-3-yloxy)methyl)phenyl)ethyl)piperazin-1-yl)-4-methyl-5-oxo-4,5-dihydro-2H-pyrazolo[4,3-b]pyridin-2-yl)acetonitrile] | 170 | 204

Continued, values first:

IC50 (DGKζ) [nM] | IC50 (DGKα) [nM] | Structure (SMILES)
2690 | 1110 | CC[C@H]1CN(C(C)c2ccc(CN3CCC(OC)C3)cc2)[C@H](CC)CN1c1cc(=O)n(C)c2cn(CC#N)nc12 (single isomer, unassigned) [Compound A203a]
7610 | 11600 | CC[C@H]1CN(C(C)c2ccc(CN3CCC(OC)C3)cc2)[C@H](CC)CN1c1cc(=O)n(C)c2cn(CC#N)nc12 (single isomer, unassigned) [Compound A203b]
31 | 467 | CC[C@H]1CN(C(C)c2ccc3c(C)cnn3c2)[C@H](CC)CN1c1cc(=O)n(C)c2cn(CC#N)nc12 (single isomer, unassigned) [Compound A204a]
971 | 7300 | CC[C@H]1CN(C(C)c2ccc3c(C)cnn3c2)[C@H](CC)CN1c1cc(=O)n(C)c2cn(CC#N)nc12 (single isomer, unassigned) [Compound A204b]
8300 | 480 | CC#CCn1cc2c(n1)c(N1C[C@@H](CC)N(C(C)c3cnc4ccccc4n3)C[C@@H]1CC)cc(=O)n2C (single isomer, unassigned) [Compound A206a]
103 | 25 | CC#CCn1cc2c(n1)c(N1C[C@@H](CC)N(C(C)c3cnc4ccccc4n3)C[C@@H]1CC)cc(=O)n2C (single isomer, unassigned) [Compound A206b]
315 | 343 | CC[C@H]1CN(C(C)c2ccc(COC3CCOC3)cc2)[C@H](CC)CN1c1cc(=O)n(C)c2cn(CC#N)nc12 (stereo partly drawn) [Compound A17, 2-(7-((2S,5R)-2,5-diethyl-4-(1-(4-(((tetrahydrofuran-3-yl)oxy)methyl)phenyl)ethyl)piperazin-1-yl)-4-methyl-5-oxo-4,5-dihydro-2H-pyrazolo[4,3-b]pyridin-2-yl)acetonitrile]
97 | 249 | CC[C@H]1CN(C(C)c2ccc(COCCOC)cc2)[C@H](CC)CN1c1cc(=O)n(C)c2cn(CC#N)nc12 (stereo partly drawn) [Compound A18, 2-(7-((2S,5R)-2,5-diethyl-4-(1-(4-((2-methoxyethoxy)methyl)phenyl)ethyl)piperazin-1-yl)-4-methyl-5-oxo-4,5-dihydro-2H-pyrazolo[4,3-b]pyridin-2-yl)acetonitrile]
